According to PMC6997888, “Salicylic Acid Targets Protein Phosphatase 2A to Attenuate Growth in Plants” (Current Biology, 2020):

Columns and labels:
[1] = molecular target: T1, PP2AA3 (Arabidopsis thaliana, UniProt Q38951); test: SPR, steady state; SA-f immobilized on CM5 chip, His-PP2AA3 flowed over; assay type: binding
T1 construct: recombinant His-PP2AA3 (pET28a, coding region)
T1 sequence (Q38951 1-587): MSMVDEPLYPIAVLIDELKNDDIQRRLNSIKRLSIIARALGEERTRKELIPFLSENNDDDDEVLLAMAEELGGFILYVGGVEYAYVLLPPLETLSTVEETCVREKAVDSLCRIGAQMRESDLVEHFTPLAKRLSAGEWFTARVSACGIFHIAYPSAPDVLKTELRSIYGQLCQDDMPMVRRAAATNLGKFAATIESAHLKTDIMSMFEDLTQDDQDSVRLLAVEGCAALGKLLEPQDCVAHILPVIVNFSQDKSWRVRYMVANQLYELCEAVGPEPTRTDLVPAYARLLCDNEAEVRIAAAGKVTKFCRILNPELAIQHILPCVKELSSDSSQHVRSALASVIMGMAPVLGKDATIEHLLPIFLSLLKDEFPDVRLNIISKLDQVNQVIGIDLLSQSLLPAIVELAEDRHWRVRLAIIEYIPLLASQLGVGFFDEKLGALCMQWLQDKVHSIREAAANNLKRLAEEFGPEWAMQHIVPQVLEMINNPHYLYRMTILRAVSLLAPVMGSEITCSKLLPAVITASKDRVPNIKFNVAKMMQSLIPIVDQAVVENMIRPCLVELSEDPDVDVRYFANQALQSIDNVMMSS
Description: SPR, steady state; SA-f immobilized on CM5 chip, His-PP2AA3 flowed over on PP2AA3 | The same sensor chip as above was used, and different concentrations of His-PP2AA3 were applied.

[2] = molecular target: T2, PP2AA1 (Arabidopsis thaliana, UniProt Q38845); test: SPR, steady state; SA-f immobilized on CM5 chip, His-PP2AA1 flowed over; assay type: binding
T2 construct: recombinant His-PP2AA1 (pET28a, coding region)
T2 sequence (Q38845 1-588): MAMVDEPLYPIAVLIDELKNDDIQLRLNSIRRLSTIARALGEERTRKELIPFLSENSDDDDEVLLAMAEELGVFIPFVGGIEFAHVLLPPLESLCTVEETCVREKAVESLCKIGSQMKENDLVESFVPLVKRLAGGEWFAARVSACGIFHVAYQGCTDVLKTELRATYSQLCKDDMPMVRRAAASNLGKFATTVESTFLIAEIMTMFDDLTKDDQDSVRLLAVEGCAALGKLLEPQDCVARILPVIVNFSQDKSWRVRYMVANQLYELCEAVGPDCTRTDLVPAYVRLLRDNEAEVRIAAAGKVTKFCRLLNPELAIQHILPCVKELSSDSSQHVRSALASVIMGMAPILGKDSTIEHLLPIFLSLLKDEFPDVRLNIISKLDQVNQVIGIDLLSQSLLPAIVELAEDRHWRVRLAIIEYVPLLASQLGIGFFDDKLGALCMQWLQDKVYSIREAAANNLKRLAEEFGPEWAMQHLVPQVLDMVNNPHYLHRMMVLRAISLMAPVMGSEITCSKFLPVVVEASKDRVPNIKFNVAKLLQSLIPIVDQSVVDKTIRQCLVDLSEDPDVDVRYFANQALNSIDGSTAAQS
Description: SPR, steady state; SA-f immobilized on CM5 chip, His-PP2AA1 flowed over on PP2AA1 | An active synthetic SA analog (SA-f) was immobilized on a CM-5 sensor chip, and different concentrations of His-PP2AA1 were applied

- Kd [1]: 1.92 µM
- Kd [2]: 3.62 µM
SMILES: NCCCCCOc1ccc(O)c(C(=O)O)c1 [SA-f, 5-((5-aminopentyl)oxy)-2-hydroxybenzoic acid]
